US4136192A, “4-Hydroxy-3-nitro (cyano) coumarins” (Beecham Group Limited, priority 1975, dated 1979)
Read-outs that look alike come from different tables or passages of the source. Values belong to the molecule of their own block, whether it stands above or below them.

Experiments:
[1] = tested on: slow reacting substance of anaphylaxis (SRS-A); assay: SRS-A antagonism on isolated guinea pig ileum; parameters: species or system guinea pig ileum (SRS-A from rat); details: rat SRS-A
Excerpt: The compounds have been evaluated as direct antagonists of slow reacting substance of anaphylaxis (SRS-A) by assay using the isolated guinea pig ileum.
SRS-A rat was obtained from the peritoneal cavity of the rat after passive peritoneal anaphylaxis by a method based on that of R. P. Orange, D. J. Stechschulte and K. F. Austen, J. Immunology, 105 1087 (1970) as described by B. A. Spicer, J. W. Ross and H. Smith, Clin. exp. Immunol. 1975, 21, 419. The sensitizing serum containing reaginic antibody was produced in rats as described by B. A. Spicer, et. al. ibid.
2 ml of a 1 in 5 dilution of the sensitizing serum was injected by the peritoneal route into recipient rats and after 2 hours, 5 ml of tyrode solution containing 0.4 mg/ml ovalbumin (Sigma Grade III) and 50 μg/ml heparin was injected by the same route. Five minutes after challenge the rats were stunned and bled and the peritoneal fluids collected into polycarbonate tubes in ice. After centrifugation at 150 g for 5 minutes the supernatants were combined, heated in a boiling water bath for 5 minutes, cooled and stored at -20° C. The combined peritioneal fluids contained SRS-A and were used in the antagonism studies.
The SRS-A assays were carried out on isolated strips of guinea pig ileum in tyrode solution containing atropine 5 × 10^-7 M and mepyramine 10^-6 M as described by W. E. Brocklehurst, J. Physiology, 151, 416 (1960).
The activity of the antagonists was determined by their ability to reduce submaximal responses induced by SRS-A. The antagonists were added to a 4 ml bath in 0.1 ml volumes in aqueous solution half a minute before the addition of SRS-A and were present during induced contraction. Two or three concentrations of antagonists were used and the percentage inhibition of the SRS-A response plotted against the bath concentration of antagonist. The line of best fit was drawn and the concentration to cause 50% inhibition IC50 read graphically.

PCA response = assay: Passive Cutaneous Anaphylaxis (rat PCA); format: in vivo; details: iv, i.v. just before ovalbumin challenge, male Wistar rats
Description: Serum containing heat labile homocytotropic antibody was raised in rats to crystallized ovalbumin XOA by the method of Mota (I. Mota, Immunology, 7, 681 (1964)) using Bordettela pertussis vaccine as adjuvant.
Passive cutaneous anaphylaxis (PCA) was carried out by a method based on that of Ovary and Bier (A. Ovary and O. G. Bier, Proc. Soc. Exp. Biol. Med 81, 584, (1952)) as modified by Goose and Blair.
Male Wistar rats of 250-300 g were given 0.1 ml of each of six twofold serial dilutions of pooled antiserum in 0.9% saline injected intradermally into separate sites on their shaved backs. Later (72 hr) the animals were challenged by intravenous injection of 0.3 ml of a 1% solution of ovalbumin in an isotonic solution of saline buffered with 0.5M, pH 7.2, Sorenson Buffer (PBS), mixed with 0.2 ml of a 5% solution of Pontamine Sky Blue (6BX C.I. 24410, Raymond A. Lamb, London) in isotonic saline. The rats were killed after 20 min and the diameter of the blue wheals at the antibody injection sites was measured on the outer surface of the skin. The starting dilution of the serum was adjusted so that there was no response, after challenge, at the injection site of the highest dilution and a maximum response at the lowest dilutions. Typically six twofold serial dilutions of the serum from 1/4 to 1/128 were used.
Compounds were tested for their ability to reduce the diameter of the wheels at those intradermal sites which in control animals gave less than maximum response. Each dose of the compound was administered intravenously to six rats in isotonic saline, adjusted to pH7 with sodium bicarbonate if necessary (2ml/kg body weight) just before intravenous challenge with ovalbumin. Control groups of six animals were given the same volume of carrier fluid at the same time.
The results were calculated as follows. % inhibition of PCA=100 (1 - a/b) where a=the sum of the diameters of the wheals produced in the test animal at the sites of antibody dilutions as used in control groups and b=the mean sum of the diameters of the wheals produced in the control group of animals at those antibody sites where at least five out of six of the animals gave less than maximum response. A typical variation in the control group of animals was SEN±6%.
The dose of the compound required to inhibit the PCA response by 50% was obtained from the log dose-response curve.

[2] = second results table, unit inferred, isolated guinea pig ileum, read-out: SRS-A antagonism on Guinea Pig ileum: Approximate concentration to give 50% inhibition of a less than maximal response to SRS-A
[3] = second results table, read-out: Rat PCA: Dose given i.v. to effect a 50% inhibition of PCA response
[4] = read-out: Rat PCA: Dose given i.v. to effect a 50% inhibition of the PCA response
[5] = as first table, unit inferred, isolated guinea pig ileum, read-out: SRS-A antagonism on Guinea Pig Ileum: Approximate concentration to give inhibition of a than maximal response to SRS-A
[6] = isolated guinea pig ileum strips, tyrode with atropine and mepyramine, 50% inhibition per method, read-out: SRS-A antagonism on Guinea Pig Ileum: Approximate concentration to give inhibition of a than maximal response to SRS-A

- IC50 [1, 2]: 1 µM
Compound: Cc1cc(C)c(C)c(OCCCOc2ccc3c(c2)C(=O)C([N+](=O)[O-])C3=O)c1 (stereo not drawn) [Example 184, 2-Nitro-5-[3-(2,3,5-trimethylphenoxy)propoxy]indan-1,3-dione]
- ED50 (PCA response; [3]): 1 mg/kg

- IC50 [1, 6]: 10 µM
Compound: O=c1oc2cc(OCCCCCCOc3ccccc3)ccc2c(O)c1[N+](=O)[O-] [Example 154, 4-Hydroxy-3-nitro-7-(6-phenoxyhexoxy) coumarin]
- ED50 (PCA response; [4]): 1 to 2 mg/kg

- IC50 [1, 5]: 0.1 µM
Compound: CCCc1cc(F)ccc1OCC(O)COc1ccc2c(O)c([N+](=O)[O-])c(=O)oc2c1 (stereo not drawn) [Example 164, 7-(3-[4-Fluoro-2-hydroxypropoxy)-4-hydroxy-3-nitro-coumarin]
- ED50 (PCA response; [4]): 1 mg/kg

- IC50 [1, 2]: 0.1 µM
Compound: O=C1c2ccc(OCCCOc3ccccc3)cc2C(=O)C1[N+](=O)[O-] (stereo not drawn) [Example 182, 2-Nitro-5-(3-phenoxypropoxy)indan-1,3-dione]
- ED50 (PCA response; [3]): < 1 mg/kg

- IC50 [1, 6]: 0.1 µM
Compound: Cc1ccccc1OCCCOc1ccc2c(O)c([N+](=O)[O-])c(=O)oc2c1 [Example 155, 4-Hydroxy-7-(3-[2-methylphenoxy]propoxy)-3-nitrocoumarin]
- ED50 (PCA response; [4]): 1 to 2 mg/kg

- IC50 [1, 2]: 1 µM
Compound: N#Cc1c(O)c2ccc(OCCCOc3ccccc3)cc2oc1=O [Example 204, 3-Cyano-4-hydroxy-7-(3-phenoxypropoxy) coumarin]
- ED50 (PCA response; [3]): 2 mg/kg

- IC50 [1, 2]: 1 µM
Compound: N#CC1C(=O)c2ccc(OCCCOc3ccccc3)cc2C1=O (stereo not drawn) [Example 188, 2-Cyano-5-(3-phenoxypropoxy)indan-1,3-dione]
- ED50 (PCA response; [3]): > 2 mg/kg

More lines, now with the values behind:

Compound: CCCc1cc(C(C)=O)ccc1OCC(O)COc1ccc2c(O)c([N+](=O)[O-])c(=O)oc2c1 (stereo not drawn) [Example 142, 7-(3-[4-Acetyl-2-n-propylphenoxy]-2-hydroxypropoxy)-4-hydroxy-3-nitrocoumarin]
- ED50 (PCA response; [4]): < 1 mg/kg

Compound: CCCc1c(OCC(O)COc2ccc3c(O)c([N+](=O)[O-])c(=O)oc3c2C)ccc(C(C)=O)c1O (stereo not drawn) [Example 147, 7-(3-[4-Acetyl-3-hydroxy-2-n-propyl-phenoxy]-2-hydroxy-propoxy)-4-hydroxy-8-methyl-3-nitro-coumarin]
- IC50 [1, 5]: 0.01 µM
- ED50 (PCA response; [4]): < 2 mg/kg

Compound: O=c1oc2cc(OCCc3ccc(F)cc3)ccc2c(O)c1[N+](=O)[O-] [Example 117]
- ED50 (PCA response; [4]): 1 mg/kg

Compound: CCCc1c(OCC(O)COc2ccc3c(O)c([N+](=O)[O-])c(=O)oc3c2CCC)ccc(C(C)=O)c1O (stereo not drawn) [Example 148, 7-(3-[4-Acetyl-3-hydroxy-2-n-propyl-phenoxy]-2-hydroxy-propoxy)-4-hydroxy-3-nitro-8-n-propyl-coumarin]
- IC50 [1, 6]: 0.1 µM
- ED50 (PCA response; [4]): < 1 mg/kg

Compound: CCCc1c(O)c(C(C)=O)cc([N+](=O)[O-])c1OCCOc1ccc2c(O)c([N+](=O)[O-])c(=O)oc2c1 [Example 165, 7-[2-(4-Acetyl-3-hydroxy-6-nitro-2-n-propylphenoxy)ethoxy]-4-hydroxy-3-nitrocoumarin]
- ED50 (PCA response; [4]): 1 mg/kg

Compound: CCCc1c(OCCOc2ccc3c(O)c([N+](=O)[O-])c(=O)oc3c2)ccc(C(C)=O)c1O [Example 127, 7-(2-[4-Acetyl-3-hydroxy-2-n-propylphenoxy]ethoxy)-4-hydroxy-3-nitrocoumarin]
- ED50 (PCA response; [4]): ~2 mg/kg

Compound: CCCc1c(O)c(C(C)=O)cc([N+](=O)[O-])c1OCC(O)COc1ccc2c(O)c([N+](=O)[O-])c(=O)oc2c1C (stereo not drawn) [Example 166, 7-[3-(4-Acetyl-3-hydroxy-6-nitro-2-n-propylphenoxy)-2-hydroxypropoxy]-4-hydroxy-8-methyl-3-nitrocoumarin]
- IC50 [1, 5]: 0.1 µM
- ED50 (PCA response; [4]): < 1 mg/kg

Compound: CCCc1c(OCC(O)COc2ccc3c(O)c([N+](=O)[O-])c(=O)oc3c2)ccc(C(=O)CC)c1O (stereo not drawn) [Example 149]
- ED50 (PCA response; [4]): 2 mg/kg

Compound: CCc1cc(C(C)=O)c(O)cc1OCC(O)COc1ccc2c(O)c([N+](=O)[O-])c(=O)oc2c1 (stereo not drawn) [Example 145, 7-(3-[4-Acetyl-2-ethyl-5-hydroxy-phenoxy]-2-hydroxy-propoxy)-4-hydroxy-3-nitrocoumarin]
- ED50 (PCA response; [4]): 2 mg/kg

Compound: O=C1c2ccc(OCCCc3ccccc3)cc2C(=O)C1[N+](=O)[O-] (stereo not drawn) [Example 183, 2-Nitro-5-(3-phenylpropoxy)indan-1,3-dione]
- ED50 (PCA response; [3]): < 1 mg/kg
